Experimental data: ChEMBL document CHEMBL1201862, “PubChem BioAssay data set” (2004)
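Five concentrations, 48 hours, 96-well plates. At the GI50, growth is halved.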 Calls of active or inactive are those of the source. Rule as the data show it: active = GI50 up to about 1.1 µM and inactive = higher.

How the values were obtained:
Experiment in all cases: inhibition of tumour cell growth, NCI panel, 48 h
[1] = system: DLD-1
[2] = system: KM-20L2
[3] = system: DMS-273
[4] = system: SNB-78
[5] = system: DMS-114
[6] = system: XF498
[7] = system: RXF 631
[8] = system: HOP-18
[9] = system: BT-549

Measured: GI50

COC(=O)/C=C1\CCC(C)O1 (stereo not given)
inactive: [1] > 100 µM | [2] > 100 µM | [3] > 100 µM | [4] > 100 µM | [5] > 100 µM | [6] > 100 µM | [7] > 100 µM

COC12CC(O)=C(C(C)=O)C(=O)C1(C)c1c(OC(C)=O)c(C)c(O)c(C(C)=O)c1O2 (stereo not given)
inactive: [2] 16.7 µM | [4] 27.7 µM | [5] 21.3 µM | [6] 14.8 µM | [7] 21.2 µM | [8] 5.11 µM

COc1ccccc1C(=O)Nc1ccc(Cl)c(C(=O)OC(C)C)c1
inactive: [2] 28.6 µM | [3] 35.3 µM | [4] 42 µM | [5] 19 µM | [6] 21.9 µM | [9] 64.9 µM | [7] 41.1 µM | [8] > 100 µM

CC1(C)CCc2cc3c(cc2O1)OCCC3=O
inactive: [1] > 100 µM | [2] > 100 µM | [5] 70 µM | [6] > 100 µM | [7] > 100 µM | [8] > 100 µM

CCCCN(CCCC)C(=O)C(=O)CC(=O)/C=C/c1ccccc1
inactive: [1] > 100 µM | [2] > 100 µM | [3] > 100 µM | [4] > 100 µM | [5] > 100 µM | [7] > 100 µM | [8] > 100 µM

NCc1cccc(O)c1O
inactive: [1] 90.4 µM | [2] > 100 µM | [3] > 100 µM | [4] > 100 µM | [5] > 100 µM | [6] > 100 µM | [7] > 100 µM | [8] > 100 µM

CCCCNC(=O)OCC(COc1ccccc1OC)OC(=O)NCCCC (stereo not given)
inactive: [1] > 100 µM | [2] > 100 µM | [3] > 100 µM | [4] > 100 µM | [5] 78.7 µM | [6] > 100 µM | [7] > 100 µM | [8] 39.5 µM

COc1ccc2c(C3(O)CCNCC3)c[nH]c2c1
inactive: [1] > 100 µM | [2] > 100 µM | [3] > 100 µM | [7] > 100 µM | [8] > 100 µM

CCOc1ccc(NC(=O)/C(=C\c2ccc(C)cc2)C(C)=O)cc1
inactive: [1] > 100 µM | [2] > 100 µM | [3] > 100 µM | [4] > 100 µM | [5] > 100 µM | [7] > 100 µM | [8] > 100 µM

CC(C)C.C[N+](C)(C)C.OC(c1ccccc1)(C(F)(F)F)C(F)(F)F.OC(c1ccccc1)(C(F)(F)F)C(F)(F)F.[SiH3-]
inactive: [1] 2.77 µM | [2] 2.29 µM | [3] 10.2 µM | [4] 10.3 µM | [5] 7.16 µM | [6] 11.9 µM | [7] 2.58 µM | [8] 4.16 µM
